Experimental data reported in publication PMC3465347, “Regulation of NF-κB Activation through a Novel PI-3K-Independent and PKA/Akt-Dependent Pathway in Human Umbilical Vein Endothelial Cells” (PLoS ONE, 2012).

Tests used:
[1] = tested on: NF-κB p65 phosphorylation in endothelial cells; assay: p65 phosphorylation western blot; format: cell-based, human; settings: 400 µM pretreatment
Experimental: (§1) Nuclear and cytoplasmic extracts were fractionated on SDS-PAGE with equal amount of proteins per well and transferred onto PVDF membranes and those membranes were incubated with appropriate primary antibodies and treated with HRP conjugated secondary antibodies followed by detection with DAB-H2O2 system. β-tubulin, α-actin and Lamin B1 were used as loading controls. Antibodies against NF-κBp65, phosphoNF-κBp65, IκBα, phosphoIκBα, IKK-β, Akt, phosphoAkt (Ser473) and phosphoAkt (Thr308) were used.

[2] = tested on: TNF-α-induced E-selectin expression on human endothelial cells; assay: Cell-ELISA for E-selectin expression; format: cell-based; settings: added 2–4 h prior to TNF-α stimulation; data not shown
Experimental: (§2) The endothelial cells were incubated with or without MPG and its derivatives at various concentrations for 2 h followed by treatment with TNF-α (10 ng/ml) for 16 h for ICAM-1 and VCAM-1 expression and 4 h for E-selectin expression. A Cell-ELISA was used to assess the expression of ICAM-1, VCAM-1 and E-selectin on the surface of endothelial cells as described previously.

[3] = tested on: human endothelial cells (HUVECs); assay: MTT cytotoxicity assay; format: cell-based
Experimental: The cytotoxicity of MPG and its derivatives was analyzed by colorimetric assay using MTT (Thiazolyl blue tetrazolium bromide) reagent as described previously. All experiments were performed at least 3 times in triplicate wells. From this assay, the percentage viability (% viability) of the cells at various concentrations of each compound was determined by normalization to control wells that contained cells incubated in vehicle (0.25% DMSO or cell culture medium) and which were considered 100% viable. The highest concentration at which the viability of the cells was >95% was denoted as the maximum tolerable concentration for that compound.

ERK1/2 = ERK1/2 activation western blot; format: cell-based, human; settings: MPTAG pretreatment
[4] = tested on: IκBα in endothelial cells; assay: IκBα phosphorylation and degradation western blot; format: cell-based, human; settings: 400 µM, TNF-α 30 mins
Experimental: as §1

[5] = tested on: NF-κBp65 subunit translocation in HUVECs; assay: NF-κB p65 nuclear translocation (western blot, immunocytochemistry); format: cell-based, human; settings: 400 µM, TNF-α-induced
Experimental: The endothelial cells were subjected to the indicated treatments followed by induction with TNF-α for indicated time points or 30 mins. The cells were then washed with PBS and dislodged using a cell scraper. The cytoplasmic and nuclear extracts were prepared as described previously, [46].
To study the effect of MPTAG on nuclear translocation of NF-κBp65 subunit in presence of TNF-α-stimulation, the HUVECs were seeded on gelatinized glass bottom 6-well plate at a cell density of 0.3×10^6 cells/ml. Following day, media was changed and MPTAG was added to the cells for 2 h. After the end of drug pretreatment, cells were induced with TNF-α for 45 mins. The cell monolayers were washed with PBS (phosphate buffered saline containing 1 mM CaCl2 and 1 mM MgCl2) and were fixed in a solution, containing 4% paraformaldehyde in 120 mM sodium phosphate buffer pH 7.2–7.4, for 20 mins at room temperature. The cells were then permeabilized using a high salt buffer, containing 0.45 M NaCl and 20 mM sodium phosphate buffer pH 7.2–7.4, 0.3% Triton X-100 and 0.2% gelatin, for 1 h at room temperature. Following this, the cells were incubated with anti-NF-κBp65 antibody for 2 h at room temperature. […] The fluorescent signals were then quantitated by selecting the nuclear and cytoplasmic regions in different fields using the NTS imaging software. […]

IKK-β = target: T1, IKK-β (Homo sapiens, UniProt O14920); assay: Direct IKK-β kinase assay on immunoprecipitated IKK-β; format: biochemical; settings: immunoprecipitated IKK-β incubated with MPTAG
T1 construct: Endogenous IKK complexes were immunoprecipitated in the following reaction mixtures; endogenous in cells; host or cells: HUVEC (uninduced and TNF-α-induced), anti-IKK-β immunoprecipitate
T1 sequence (O14920 whole entry): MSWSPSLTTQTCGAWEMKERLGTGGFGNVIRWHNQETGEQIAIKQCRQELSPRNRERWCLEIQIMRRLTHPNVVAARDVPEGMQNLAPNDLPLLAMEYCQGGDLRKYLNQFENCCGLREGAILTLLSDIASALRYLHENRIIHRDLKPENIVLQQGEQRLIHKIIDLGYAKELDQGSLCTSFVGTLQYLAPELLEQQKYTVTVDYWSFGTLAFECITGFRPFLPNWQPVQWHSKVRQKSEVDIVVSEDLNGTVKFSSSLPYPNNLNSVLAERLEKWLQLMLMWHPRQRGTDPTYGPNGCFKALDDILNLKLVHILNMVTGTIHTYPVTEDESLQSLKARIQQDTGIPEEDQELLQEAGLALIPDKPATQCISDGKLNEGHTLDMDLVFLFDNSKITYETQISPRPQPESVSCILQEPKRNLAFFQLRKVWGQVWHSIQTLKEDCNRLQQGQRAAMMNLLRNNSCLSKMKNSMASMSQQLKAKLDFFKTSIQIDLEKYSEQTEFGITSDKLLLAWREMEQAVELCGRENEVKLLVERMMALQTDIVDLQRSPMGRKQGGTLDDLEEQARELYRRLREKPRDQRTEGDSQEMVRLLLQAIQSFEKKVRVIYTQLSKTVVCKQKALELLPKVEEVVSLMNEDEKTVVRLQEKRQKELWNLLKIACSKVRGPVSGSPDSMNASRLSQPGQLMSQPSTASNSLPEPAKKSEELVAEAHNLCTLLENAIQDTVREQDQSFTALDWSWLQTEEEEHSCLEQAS
Experimental: In brief, confluent HUVECs were incubated with or without MPTAG and were stimulated with TNF-α (10 ng/ml) for 15 mins. The cells were washed and lysed in Lysis buffer containing 50 mM HEPES, pH 7.6, 10% glycerol, 1 mM sodium orthovanadate, 100 mM NaCl, 1% NP-40, 1 mM EDTA and protease inhibitor cocktail and allowed to swell on ice for 45 mins. Following centrifugation at 13,000 rpm for 45 mins, the supernatants were collected as “total cell extracts” and stored at −70°C. Immunoprecipitation was performed as per the instructions of Protein G immunoprecipitation kit (Sigma Aldrich, USA). Endogenous IKK complexes were immunoprecipitated in the following reaction mixtures: 100–300 µg of total cell extracts were incubated with 2–4 µg anti-IKK-β or PKAα antibody in 100 µl 1× IP buffer. After incubation for 16 h at 4°C with constant shaking, 50 µl of activated protein G beads were added and the mixture was incubated under rotation for an additional 3 h at 4°C.
Kinase assay was performed as previously described. Immunoprecipitates from 100 µg of total cell extracts were used for kinase assays. The reaction mixture consisted of kinase buffer (20 mM Tris Cl, pH 7.6, 1 mM EDTA, 1 mM sodium orthovanadate, 20 mM MgCl2, 2 mM DTT), 2 µg GST-IκBα(1–54), 5 µM ATP and 1 µCi [γ ^32P] ATP in a volume of 30 µl. […]

[6] = tested on: TNF-α-induced ICAM-1 expression on human endothelial cells; assay: Cell-ELISA for ICAM-1 expression; format: cell-based
Experimental: as §2

[7] = tested on: Akt phosphorylation in HUVECs; assay: Akt phosphorylation western blot; format: cell-based, human
Experimental: as §1

[8] = tested on: TNF-α-induced VCAM-1 expression on human endothelial cells; assay: Cell-ELISA for VCAM-1 expression; format: cell-based; settings: added 2–4 h prior to TNF-α stimulation; data not shown
Experimental: as §2

With `CC(=O)OC[C@H]1O[C@@H](Oc2c(C)occc2=O)[C@H](OC(C)=O)[C@@H](OC(C)=O)[C@@H]1OC(C)=O` [MPTAG, 2-methyl-pyran-4-one-3-O-β-D-2′,3′,4′,6′-tetra-O-acetyl glucopyranoside] the “TNF-α-induced p65 phosphorylation in the cytoplasm” value [1] was “inhibits p65 phosphorylation”, the “inhibition of E-selectin” value [2] was “maximum inhibition” and the “morphology and viability in HUVECs” value ([3]; 400 µM) was “without affecting”. The “cytotoxicity compared to parent compound MPG and the other two derivatives” value ([3]; MTT, human endothelial cells) was “less cytotoxic”, the “TNF-α-induced ERK activation” value (ERK1/2) was “no effect” and the “TNF-α-induced degradation of IκBα” value [4] was “inhibited”. For the same compound, the “TNF-α-induced phosphorylation of IκBα” value [4] was “inhibited”, the “translocation of NF-κBp65 subunit into the nucleus” value [5] was “prevented the translocation” and the “activity of IKK-β by direct interaction” value (IKK-β) was “did not affect”. The “inhibition of ICAM-1” value ([6]; added 2–4 h prior to TNF-α stimulation, data not shown) was “maximum inhibition”, the “rank among derivatives for inhibition of TNF-α-induced ICAM-1, VCAM-1, E-selectin expression and neutrophil adhesion” value ([6]; human endothelial cells, Table S2) was “most active derivative” and the “protein levels of Akt” value ([7]; 400 µM) was “without affecting”. For the same compound, the “inhibitory effect of MPTAG on TNF-α-induced Akt phosphorylation when H-89 added prior” value ([7]; H-89 added prior to MPTAG) was “completely abolished”, the “TNF-α-induced phosphorylation of Akt at Ser473” value ([7]; MPTAG 400 µM, TNF-α 30 mins) was “inhibited” and the “TNF-α-induced phosphorylation of Akt at Thr308” value ([7]; MPTAG 400 µM, TNF-α 30 mins) was “inhibited”. The “TNF-α-induced Akt phosphorylation (Thr308), independently of wortmannin” value ([7]; with or without wortmannin before MPTAG) was “dose-dependently inhibited” and the “inhibition of VCAM-1” value [8] was “maximum inhibition”.
